Converted amounts (≈) assume the structure as drawn. Read-outs that look alike come from different tables or passages of the source. One block for each compound: values may come before it.
Legend:
Streptococcus mutans R9 = assay: Minimum inhibitory concentration (MIC), microtitre broth dilution; type: cell-based
Method: The minimum inhibitory concentration of an antimicrobial agent (triclosan), and a flavour material or mixture of flavour materials (flavour), was determined by the following method.
A culture of the test strain Streptococcus mutans R9, deposited under the Budapest Treaty with National Collections of Industrial, Food and Marine Bacteria Limited, 23 St Machar Drive, Aberdeen, AB24 3RY, Scotland, UK on 22nd Jan. 2004 and given accession number NCIMB 41209) (may also be obtained from Prof. Philip Marsh, Centre for Applied Microbiology and Research, Salisbury, Wiltshire, SP4 OJG, UK) was grown in 250 ml of PM broth (containing: peptone, 2% w/v; tryptone, 1% w/v; yeast extract, 1% w/v; KCl, 0.25% w/v; of approximately pH 7), anaerobically at 37° C. for 48 hours. The absorbance of the culture at 540 nm (A540) was measured and adjusted if necessary to between 0.2-0.3 by diluting with fresh (i.e. sterile) PM broth. The culture was then diluted in Schaedler Anaerobic Broth (SAB) (Oxoid, Basingstoke, UK) in a ratio of 1 part culture to 25 parts broth to give a stock inoculum culture.
Determination of the MIC of Triclosan Against S. mutans
Triclosan powder was dissolved in AR-grade ethanol, to a concentration of 32,000 ppm (3.2% w/v). This was diluted in Schaedler Anaerobic Broth (SAB) to yield two stock triclosan solutions of concentrations: 320 ppm (0.032% w/v) and 64 ppm (0.0064% w/v).
200 μl of the 320 ppm triclosan stock solution was then added to the first and seventh well of row A on a standard 96-well microtitre plate. All remaining wells in this row were filled with 100% of sterile SAB. The contents of well 1 and the contents of well 7 were independently mixed by repeatedly sucking the contents up and down a pipette tip. 100 μl from well 1 was transferred to the second well of row A and 100 μl from well 7 was transferred to the eighth well of row A. This process was repeated along the row until the sixth and twelfth wells contained 200 μl. After mixing, 100 μl from wells 6 and 12 was discarded to waste. Each successive well in row A therefore contained a two-fold dilution of triclosan compared with the preceding well (i.e. 80 ppm in wells 2 and 8; 40 ppm in wells 3 and 9, etc.), resulting in wells 6 and 12 having a concentration of 5 ppm. A similar series of dilutions was repeated starting with the 64 ppm triclosan stock solution into row B on a microtitre plate. This gave a range of triclosan concentrations from 32 ppm to 1 ppm following the dilution process described. Finally, 100 μl of the pre-diluted stock inoculum culture was added to all wells, thus giving a final volume of 200 μl in each well. Wells 1 and 7 of row A therefore contained a final concentration of 160 ppm triclosan.
A blank plate was prepared for each of the two samples by repeating the process described above, except that 100 μl of SAB was added instead of bacterial culture. This plate was used as the control plate against which the test plate(s) could be read.
Test and control plates were sealed using autoclave tape and incubated for 48 hours anaerobically at 37° C.
A microtitre plate reader (Model MRX, Dynatech Laboratories) was preset to gently agitate the plates and mix the contents. The absorbance at 540 nm “A540” was used as a measure of turbidity resulting from bacterial growth. The control, un-inoculated plate for each set of samples was read first, and the plate reader then programmed to use the control readings to blank all other plate readings for the inoculated plates for the same set of test materials (i.e. removing turbidity and possible colour changes during incubation which are due to chemical interactions). Thus, the corrected readings generated were absorbances resulting from turbidity from bacterial growth. The MIC was taken as the lowest concentration of triclosan required to inhibit growth so that the change in absorbance during the incubation period was <0.2 A540. […]

S. mutans = assay: Potential synergy of triclosan with flavour materials (growth at sub-MIC concentrations); type: cell-based, Streptococcus mutans; conditions: for Synergy Shown: flavour material with triclosan against S. mutans; for 50% MIC without triclosan: growth of S. mutans with flavour material at 50% of its MIC alone; for 50% MIC and 8 ppm triclosan: growth of S. mutans with flavour material at 50% of its MIC plus 8 ppm triclosan
Method: This example describes a method for determining the potential synergy of triclosan with flavour materials against S. mutans.
A microtitre method using the procedure described below was employed.
Flavour materials were assessed at a final concentration of 50% of the MIC value determined according to Example 1 above, in combination with triclosan at 8 ppm, i.e. about 50% of the MIC value also determined as described in Example 1. Inhibition of growth by this combination of sub-MIC concentrations of flavour material and triclosan was taken to indicate antimicrobial synergy between the flavour material and triclosan.
100 μl of stock solution was added to the appropriate well of a standard 96-well microtitre plate. An equivalent volume of bacterial stock inoculum solution (prepared as in Example 1) was added giving the desired dilution in each well. A blank plate was prepared using the same process except that 100 μl of SAB was added instead of bacterial culture. The protocol for incubation, reading of results and interpretation was as described in Example 1.

[1] = system: protease activity (arg-gingipain) of Porphyromonas gingivalis; assay: Protease enzyme assay (BAPNA substrate), synergy of flavour material with antimicrobial agent; type: biochemical, Porphyromonas gingivalis W50; conditions: compared with flavour material alone; for Classes of Synergy, increase in inhibition; Antimicrobial Agent Triclosan: flavour material 2500 ppm and 5000 ppm plus sub-MIC triclosan; for Classes of Synergy, increase in inhibition; Antimicrobial Agent Zinc Sulphate: flavour material 2500 ppm and 5000 ppm plus sub-MIC zinc sulphate
Method: The following assay was used to investigate the inhibition of protease activity (arg-gingipain) of the micro-organism Porphyromonas gingivalis (implicated in gum disease) by a flavour material or mixture of flavour materials.
Fresh buffer was prepared immediately before beginning the assay in the following manner: 3.029 g of Tris Base (Sigma, Poole, UK), 394 mg of L-cysteine hydrochloride (Sigma, Poole, UK) and 367.5 mg of calcium chloride dihydrate (Sigma, Poole, UK) were dissolved in 150 ml deionised water. In order to allow for pH differences resulting from any variation in ambient temperature, the temperature of the buffer was taken. The pH of TRIS buffers varies with temperature i.e. Δ pH=−0.031/° C. This assay should be carried out at a temperature of 30° C., with the buffer having a pH of 8.0. Thus, if the measured temperature of the buffer is, for example, 22° C. (room temperature) the pH should be adjusted to 8.24 with 2M hydrochloric acid, in order to give the desired conditions i.e. pH=8.0 at 30° C. After adjusting the pH, the buffer was made up to 200 ml with deionised water and incubated in a water bath at 30° C. for approximately one hour to reach temperature equilibrium before commencing the assay.
The enzyme substrate BAPNA (DL-α-benzoyl-DL-arginyl-p-nitro-anilide) (Sigma) is the synthetic substrate for the protease enzyme produced by the bacterium Porphyromonas gingivalis. The substrate is degraded by enzymes which show specificity for cleaving adjacent to arginine residues. This cleavage yields a yellow nitro-aniline product, which can be readily detected spectrophotometrically at 405 nm. 10.87 mg of the BAPNA substrate was added to 0.5 ml of dimethylsulphoxide (DMSO) and thoroughly dissolved. 9.5 ml of deionised water was then added. The resulting solution was then mixed by vortex and incubated at 30° C. in a water bath for about one hour before commencing the assay to allow temperature equilibration.
Porphyromonas gingivalis W50 ATCC 53978 (American Type Culture Collection (ATCC), P.O. Box 1549, Manassas, Va. 20108, USA) (may also be obtained from Prof. Philip Marsh, Centre for Applied Microbiology and Research, Salisbury, Wiltshire, SP4 OJG, UK) was sub-cultured from frozen stock cultures onto Schaedler Anaerobic Agar (Oxoid, Basingstoke, UK), and supplemented with 5% v/v horse blood (E&O Laboratories, Bonnybridge, Scotland, FK4 2HH). The plates were incubated at 37° C. in an anaerobic cabinet (Don Whitley Scientific, Shipley, UK) for 3-5 days. Single colonies grown on these plates were then inoculated into 250 ml Schaedler Anaerobic Broth (SAB) contained in bottles with cotton wool stoppers. The broths were then incubated in an anaerobic cabinet and allowed to grow for 3-5 days. This generally yielded a culture with an absorbance at 540 nm (A540) between 0.2 and 0.4.
Into 1.5 ml disposable plastic cuvettes was added 0.7 ml of assay buffer, followed by 0.2 ml of BAPNA solution and 0.1 ml of bacterial culture. The cuvettes were capped and mixed, then placed in a Pye Unicam 8620 Spectrophotometer (Pye Unicam, Cambridge, UK). The increase in absorbance at 405 nm […] was recorded over a period of 3 minutes.
The percentage inhibition of protease by a given flavour/flavour material was determined by the formula: [formula]
The synergy between flavour/flavour material and an antimicrobial agent against the protease activity of Porphyromonas gingivalis was then determined in the following manner. Firstly, the MIC value of the antimicrobial agent required to cause any inhibition of protease activity was determined using the method generally described in Example 1 for the determination of the MIC value of triclosan. […] The dilution immediately lower than the MIC value was selected as the sub-IC concentration of antimicrobial agent. All flavour materials were tested at 2500 ppm and 5000 ppm.
The percentage inhibition of protease by the flavour material and antimicrobial agent was determined as described above.

[2] = flavour material against S. mutans R9, 48 hours anaerobically at 37° C., read-out: MIC (ppm)

Structure (SMILES): CCCCCCCCCO [Alcohol C9, nonanol]
MIC (Streptococcus mutans R9; [2]): 5000 µg/mL (≈ 34.7 mM)
Synergy Shown (S. mutans): Yes
50% MIC without triclosan (S. mutans): +
50% MIC and 8 ppm triclosan (S. mutans): −
Classes of Synergy, increase in inhibition; Antimicrobial Agent Triclosan [1]: − (− = <15% increase in inhibition)
Classes of Synergy, increase in inhibition; Antimicrobial Agent Zinc Sulphate [1]: + (+ = >15% increase in inhibition)

Structure (SMILES): CCCCCCCCCCO [Alcohol C10, decanol]
MIC (Streptococcus mutans R9; [2]): 5000 µg/mL (≈ 31.6 mM)
Synergy Shown (S. mutans): Yes
50% MIC without triclosan (S. mutans): +
50% MIC and 8 ppm triclosan (S. mutans): −
Classes of Synergy, increase in inhibition; Antimicrobial Agent Triclosan [1]: + (+ = >15% increase in inhibition)
Classes of Synergy, increase in inhibition; Antimicrobial Agent Zinc Sulphate [1]: + (+ = >15% increase in inhibition)

MIC (Streptococcus mutans R9; [2]): 5000 µg/mL (≈ 35.2 mM)
50% MIC without triclosan (S. mutans): +
50% MIC and 8 ppm triclosan (S. mutans): −
Structure (SMILES): CCCCCCCCC=O [Aldehyde C9, nonanal]
Synergy Shown (S. mutans): Yes

MIC (Streptococcus mutans R9; [2]): 5000 µg/mL (≈ 32 mM)
50% MIC without triclosan (S. mutans): +
50% MIC and 8 ppm triclosan (S. mutans): −
Structure (SMILES): CCCCCCCCCC=O [Aldehyde C10, decanal]
Synergy Shown (S. mutans): Yes

Structure (SMILES): C/C=C/c1ccc(OC)cc1 [Anethole Synthetic, anethole synthetic]
Classes of Synergy, increase in inhibition; Antimicrobial Agent Triclosan [1]: − (− = <15% increase in inhibition)
Classes of Synergy, increase in inhibition; Antimicrobial Agent Zinc Sulphate [1]: − (− = <15% increase in inhibition)

Structure (SMILES): CCCC(=O)OCc1ccccc1 [Benzyl Butyrate, benzyl butyrate]
Classes of Synergy, increase in inhibition; Antimicrobial Agent Triclosan [1]: − (− = <15% increase in inhibition)

Structure (SMILES): O=C(OCc1ccccc1)c1ccccc1 [Benzyl benzoate, benzyl benzoate]
Classes of Synergy, increase in inhibition; Antimicrobial Agent Triclosan [1]: + (+ = >15% increase in inhibition)
Classes of Synergy, increase in inhibition; Antimicrobial Agent Zinc Sulphate [1]: − (− = <15% increase in inhibition)

Structure (SMILES): O=C/C=C/c1ccccc1 [Cinnamic Aldehyde Extra, cinnamic aldehyde]
MIC (Streptococcus mutans R9; R9, 48 h): 625 µg/mL (≈ 4.73 mM)
Synergy Shown (S. mutans): Yes
50% MIC without triclosan (S. mutans): +
50% MIC and 8 ppm triclosan (S. mutans): −

Structure (SMILES): CC/C=C\CCO [Cis-3-hexenol, cis-3-hexenol]
Classes of Synergy, increase in inhibition; Antimicrobial Agent Triclosan [1]: − (− = <15% increase in inhibition)
Classes of Synergy, increase in inhibition; Antimicrobial Agent Zinc Sulphate [1]: + (+ = >15% increase in inhibition)

Structure (SMILES): COC(=O)C=Cc1ccccc1 [Methyl Cinnamate, methyl cinnamate]
Classes of Synergy, increase in inhibition; Antimicrobial Agent Triclosan [1]: + (+ = >15% increase in inhibition)
Classes of Synergy, increase in inhibition; Antimicrobial Agent Zinc Sulphate [1]: − (− = <15% increase in inhibition)

Structure (SMILES): Oc1cc(Cl)ccc1Oc1ccc(Cl)cc1Cl [triclosan, 2′,4,4′-trichloro-2-hydroxy-diphenyl ether, reference compound]
MIC (Streptococcus mutans R9; R9, 48 h, read-out: MIC for triclosan against S. mutans R9): 10 to 16 µg/mL (≈ 0.0345 to 0.0553 mM)

Reference: patent US20060210491A1, “Flavoured mouth wash composition” (priority 2003, published 2006)
